ChEMBL document CHEMBL5226346, “Chiral Cyclic Aliphatic Linkers as Building Blocks for Selective Dopamine D2 or D3 Receptor Agonists” (J Med Chem, 2021)

Tests used:
Homo sapiens [1] = species: Homo sapiens; test: Selectivity ratio of Ki for displacement of [3H]-(R)-(+)7-OH-DPAT from human dopamine D3 receptor expressed in HEK293 cell membranes to Ki for displacement of [3H]-(R)-(+)7-OH-DPAT from human dopamine D2 receptor expressed in HEK293 cell membranes
D(2) dopamine receptor = D(2) dopamine receptor (Homo sapiens, UniProt P14416); test: Displacement of [3H]-(R)-(+)7-OH-DPAT from human dopamine D2 receptor expressed in HEK293 cell membranes incubated for 90 mins by microbeta scintillation counting analysis; parameters: species or system Cell membrane
D(3) dopamine receptor = D(3) dopamine receptor (Homo sapiens, UniProt P35462); test: Displacement of [3H]-(R)-(+)7-OH-DPAT from human dopamine D3 receptor expressed in HEK293 cell membranes incubated for 90 mins by microbeta scintillation counting analysis; parameters: species or system Cell membrane
HEK293 = test: Selectivity ratio of Ki for displacement of [3H]-(R)-(+)7-OH-DPAT from human dopamine D2 receptor expressed in HEK293 cell membranes to Ki for displacement of [3H]-(R)-(+)7-OH-DPAT from human dopamine D3 receptor expressed in HEK293 cell membranes; conditions: Cell membrane
Homo sapiens [2] = species: Homo sapiens; test: Selectivity ratio of Ki for displacement of [3H]-N-methylspiperone from human dopamine D2 receptor expressed in HEK293 cell membranes to Ki for displacement of [3H]-N-methylspiperone from human dopamine D3 receptor expressed in HEK293 cell membranes

Chain of D(2) dopamine receptor (P14416 whole entry): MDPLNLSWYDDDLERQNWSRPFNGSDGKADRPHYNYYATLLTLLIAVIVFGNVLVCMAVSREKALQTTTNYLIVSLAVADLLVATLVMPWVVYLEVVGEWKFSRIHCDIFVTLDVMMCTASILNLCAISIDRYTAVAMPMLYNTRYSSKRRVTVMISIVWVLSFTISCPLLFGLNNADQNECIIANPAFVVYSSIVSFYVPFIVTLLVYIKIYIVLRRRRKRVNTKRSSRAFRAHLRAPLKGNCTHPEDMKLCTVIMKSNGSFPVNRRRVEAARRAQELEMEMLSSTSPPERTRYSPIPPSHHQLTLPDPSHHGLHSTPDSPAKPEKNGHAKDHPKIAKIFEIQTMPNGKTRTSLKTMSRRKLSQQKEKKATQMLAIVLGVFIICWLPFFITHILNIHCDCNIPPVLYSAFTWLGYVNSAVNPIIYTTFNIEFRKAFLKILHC
Chain of D(3) dopamine receptor (P35462 whole entry): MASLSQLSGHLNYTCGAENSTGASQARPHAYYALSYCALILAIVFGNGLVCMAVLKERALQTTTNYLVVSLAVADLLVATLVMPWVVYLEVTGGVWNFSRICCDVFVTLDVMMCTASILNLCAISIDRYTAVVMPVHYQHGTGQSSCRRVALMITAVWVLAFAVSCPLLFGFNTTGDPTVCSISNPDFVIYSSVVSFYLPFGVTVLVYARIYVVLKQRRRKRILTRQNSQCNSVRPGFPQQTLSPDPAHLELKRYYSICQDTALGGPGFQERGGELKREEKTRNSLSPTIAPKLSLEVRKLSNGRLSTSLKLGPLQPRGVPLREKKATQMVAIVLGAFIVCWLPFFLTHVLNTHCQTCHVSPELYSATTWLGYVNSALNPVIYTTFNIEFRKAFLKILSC

Row | SMILES | Ki (D(2) dopamine receptor) [µM] | Ki (D(3) dopamine receptor) [µM] | Ratio Ki (HEK293) | Ratio Ki (Homo sapiens [1]) | Ratio Ki (Homo sapiens [2])
1 | CN(CC[C@@H]1CC[C@@H](CNC(=O)c2cc3ccccc3[nH]2)C1)[C@@H]1Cc2cccc3[nH]c(=O)n(c23)C1 (relative stereo) |  |  |  | 17 | 
2 | CN[C@@H]1Cc2cccc3[nH]c(=O)n(c23)C1 [SUMANIROLE] |  | 0.784 |  |  | 
3 | CN(C[C@H]1C[C@@H]1CCNC(=O)c1cc2ccccc2[nH]1)[C@@H]1Cc2cccc3[nH]c(=O)n(c23)C1 | 0.0491 | 0.0221 | 2.2 |  | 
4 | CN(CC[C@@H]1CC[C@H](CNC(=O)c2cc3ccccc3[nH]2)C1)[C@@H]1Cc2cccc3[nH]c(=O)n(c23)C1 (relative stereo) |  |  |  | 9.6 | 

Second part, led by results:

Row | Ki (D(2) dopamine receptor) [µM] | Ki (D(3) dopamine receptor) [µM] | Ratio Ki (HEK293) | SMILES | Ratio Ki (Homo sapiens [1]) | Ratio Ki (Homo sapiens [2])
5 | 1.87 | 1.38 | 1.4 | C[C@H]1CO[C@@H](c2ccc(N)nc2)CN1CC(=O)N1CCC(CNC(=O)c2cc3ccccc3[nH]2)C1 (some centres undefined) |  | 3.3
6 | 0.00956 | 0.106 |  | CN(C[C@@H]1C[C@H]1CCNC(=O)c1cc2ccccc2[nH]1)[C@@H]1Cc2cccc3[nH]c(=O)n(c23)C1 | 11 | 
7 |  |  | 7.5 | C[C@H]1CO[C@@H](c2ccc(N)nc2)CN1C/C=C1\CCC(CNC(=O)c2cc3ccccc3[nH]2)C1 (mixture of isomers) |  | 76
8 | 13.5 | 6.86 | 2 | C[C@H]1CO[C@@H](c2ccc(N)nc2)CN1CCn1cc(CNC(=O)c2cc3ccccc3[nH]2)nn1 |  | 12
